Test results taken from patent publication EP2036556A1, “Piperidone derivatives and medical uses thereof” (Heinrich-Pette-Institut, priority 2007, dated 2009).

Assays:
[1] = tested on: macrophage cell line J774.1; assay: Macrophage assay (Alamar Blue cytotoxicity); assay type: cell-based; settings: Mus musculus; J774.1 macrophages; after 48h; read-out: ED50 [µM] Macrophage after 48h
Method: The macrophage cell line J774.1 was maintained in complete Click RPMI medium. For the experimental procedures cells were detached from the flasks with a rubber police, washed twice with PBS and suspended at 2 x 10^6 cells mL^-1 in complete Click RPMI medium. […] Following the addition of 20 µl of Alamar Blue, the plates were further incubated at similar conditions. The plates were then read 24 and 48 h later. Control experiments to examine the effect of cell density, incubation time and DMSO concentration were performed. Absorbance in the absence of compounds was set as 100 % of growth control.

HTLV-I = assay: Inhibition of HTLV-I virus production in MT-2 cells (real-time PCR of gag RNA in supernatant); assay type: cell-based; settings: Primate T-lymphotropic virus 1, MT2, 240 h, day 10 and 14, read-out: inhibition of virus production in relation to the solvent control
Description: For the investigation wether the inhibition of DOHH by the compositions of the invention can influence replication of HTLV-I, the lymphoma cell line MT-2, which is latently infected by HTLV-I was used as a model system (Harada et al., 1985, Infection of HTLV-III/LAV in HTLV-I-carrying cells MT-2 and MT-4 and application in a plaque assay. Science 229, 563-566). MT-2 cells continually produce a high amount of virus particles which are secreted into the cell culture supernatant, and they grow quickly. The experimental approach is based on the comparison of the virus load of cells treated with the potential inhibitor and an untreated control. As the inhibitor was dissolved in DMSO, the same amount of this solvent was added to the control cells.
For investigating the influence of inhibition of DOOH on the replication of HTLV-I, as before, MT-2 cells were cultivated with the determined subtoxic concentrations of compound 11 as well as a solvent control. In regular intervals, cell vitality was determined and the RNA of the virus particles from the supernatant was isolated. After reverse transcription with a primer specific for the gag region of HTLV-I RNA, the cDNA was quantified by real-time PCR. For detection of the amplified DNA, a gag-specific probe was used. A plasmid comprising the HTLV-I provirus served as a standard. […]

[2] = tested on: X4-tropic HIV-1 strain NL4/3; assay: HIV-1 infection experiments in PM1 cells, p24 antigen ELISA, strain NL4/3; assay type: cell-based; settings: concentration of 6 µM, compared to DMSO control cultures
Method: (§1) HIV-1 infection experiments using the T-cell tropic (X4) strain NL4/3, the macrophage-tropic (R5) strain BaL were routinely performed using PM1 cells (virus laboratory strains and cells were obtained from the NIH AIDS Research and Reference Reagent Program). Cells were cultured in RPMI medium containing 10 % fetal calf serum (Pansystems GmbH) and antibiotics (penicillin and streptomycin). For HIV-1 infection, 5 x 10^7 cells were resuspended in 500 µl culture medium without drugs and incubated at 37 °C for 3 h with 100 ng of HIV-1 viral stocks. After infection, cells were washed twice with PBS without Ca^2+ and Mg^2+ to avoid false positive p24 antigen determination. Cells were resuspended and identical aliquots (5 x 10^5 / mL) of infected cells were further cultured in 24-well plates (triplicates) in the presence of the drugs (dissolved in DMSO) at various concentrations, or in medium with DMSO as control for the calculation of the inhibition of virus replication. Culture medium was changed and cells were splitted twice a week post-infection. Viability of the cells (as measured by Alamar Blue) and p24 antigen levels (as measured by ELISA; Innogenetics N.V.) were determined at different time points.

MT-2 cells = assay type: cell-based; settings: human, 10 days, 10 µM
Method: First, the subtoxic concentration of the inhibitor was determined by vitality assays. MT-2 cells were cultured for 14 days with 10, 5, 2.5 and 1.5 µM of the inhibitor as well as DMSO as a solvent control. In regular intervals, samples for determination of the vitality of the cells were taken. Vitality was tested with the alamarBlue®-Assays.

[3] = tested on: T. brucei brucei laboratory strain TC 221; assay: Trypanosome assay (in vitro cytotoxicity, Alamar Blue); assay type: cell-based, Trypanosoma brucei brucei; settings: for EC50: Trypanosoma brucei, strain TC 221, 10^4 trypanosomes per mL, incubated 72 h, reading at 48 h, Alamar Blue, read-out: ED50 [µM] T. brucei brucei
Method: Parasite culture: Trypomastigote forms of T. brucei brucei laboratory strain TC 221 were cultured in Baltz medium according to standard conditions.^36 In vitro cytotoxicity assays: The test compounds were dissolved in DMSO or 0.1 M NaOH. A defined number of parasites (10^4 trypanosomes per mL) were exposed in test chambers of 96-well plates to various concentrations of the test substances in a final volume of 200 µl. Positive (trypanosomes in culture medium) and negative controls (test substance without trypanosomes) were run with each plate. The plates were then incubated at 37°C in an atmosphere of 5 % CO2 for a total time period of 72 h. […] The effect of test substances was quantified in ED50 values by linear interpolation^18 of three different measurements. The activity of the test substances was measured by light absorption in an MR 700 Microplate Reader at a wavelength of 550 nm with a reference wave length of 630 nm, using the Alamar Blue®.

[4] = tested on: R5-tropic HIV-1 strain BaL; assay: HIV-1 infection experiments in PM1 cells, p24 antigen ELISA, strain BaL; assay type: cell-based
Method: as §1

HIV-1 = HIV-1 infection experiments in PM1 cells, strain not specified (BaL and/or NL4/3); assay type: cell-based; settings: strain and concentration not given
Method: as §1

plasmodia = settings: after 48 h; previous study; cited from earlier work

| SMILES | EC50 [1] | EC50 [3] | inhibition of virus replication (HIV-1) | activity against the plasmodia (plasmodia) | other results |
| --- | --- | --- | --- | --- | --- |
| C=CCN1[C@@H](c2ccc([N+](=O)[O-])cc2)C(C(=O)OCC)=C(O)C(C(=O)OCC)[C@@H]1c1ccc([N+](=O)[O-])cc1 (stereo partly drawn) [Compound 11, Diethyl (2R,6S)-1-allyl-4-hydroxy-2,6-bis(4-nitrophenyl)-1,2,3,6-tetrahydropyridine-3,5-dicarboxylate] | > 100 µM | 3.06 ± 0.55 µM | – | – | inhibition at 2.5 µM (HTLV-I; 2.5 µM): > 90%; inhibition at 5 µM (HTLV-I; 5 µM): > 80%; inhibition of replication of HIV-1 NL4/3 [2]: completely inhibit; death of the cells (MT-2 cells): 90%; inhibition of replication of HIV-1 BaL ([4]; PM1 cells, concentration of 5 µM, compared to DMSO control cultures): completely inhibit |
| COC(=O)C1=C(O)C(C(=O)OC)[C@H](c2ccc([N+](=O)[O-])cc2)N(Cc2ccccc2)[C@H]1c1ccc([N+](=O)[O-])cc1 (stereo partly drawn) [Compound 12, Dimethyl (2R,6S)-1-benzyl-4-hydroxy-2,6-bis(4-nitrophenyl)-1,2,3,6-tetrahydropyridine-3,5-dicarboxylate] | 18.4 ± 2.93 µM | 3.01 ± 0.27 µM | 20% | – | – |
| CCOC(=O)C1=C(O)C(C(=O)OCC)[C@H](c2ccc([N+](=O)[O-])cc2)N(Cc2ccccc2)[C@H]1c1ccc([N+](=O)[O-])cc1 (stereo partly drawn) [Compound 13, Diethyl (2R,6S)-1-benzyl-4-hydroxy-2,6-bis(4-nitrophenyl)-1,2,3,6-tetrahydropyridine-3,5-dicarboxylate] | > 100 µM | 2.72 ± 0.51 µM | 20% | – | – |
| COC(=O)C1=C(O)C[C@@H](c2ccccn2)N(Cc2ccc(Cl)cc2)[C@H]1c1ccccn1 [Compound 21, Methyl (2'R,6'S)-1'-(4-chlorobenzyl)-4'-hydroxy-1',2',5',6'-tetrahydro-2,2';6',2''-terpyridine-3'-carboxylate] | 32.8 ± 0.49 µM | 0.32 ± 0.09 µM | – | high activity | – |
| C=CCN1[C@@H](c2ccccn2)C(C(=O)OC)=C(O)C[C@H]1c1ccccn1 [Compound 24, Methyl (2'R,6'S)-1'-allyl-4'-hydroxy-1',2',5',6'-tetrahydro-2,2';6',2''-terpyridine-3'-carboxylate] | 35 µM | 1.08 ± 0.48 µM | – | high activity | – |
| Cl.Clc1cccc(Cl)c1CON=CC1CCN(CCCc2ccccc2)CC1 [Compound 53, 4-[(2,6-Dichloro-benzyloxyimino)-methyl]-1-(3-phenyl-propyl)-piperidinium hydrochloride] | 28.4 ± 5.92 µM | 3.86 ± 1.95 µM | – | – | activity against trypanosomes (in words) ([3]; statement of the discussion): active against trypanosomes; inhibition at 10 µM ([4]; Human immunodeficiency virus 1, HIV-1 BaL infected PM1 cells, concentration of 10 µM, read-out: virus replication inhibited): 85% |
